This is an account of results in patent US20080090814A1, “PYRIDAZINONE COMPOUNDS” (Anadys Pharmaceuticals, Inc., priority 2006, published 2008).

Molecules are shown by their SMILES. A value given as a limit tells only on which side of the number the result lay.

Sequence of HCV NS5B polymerase (P27958 2421-3011): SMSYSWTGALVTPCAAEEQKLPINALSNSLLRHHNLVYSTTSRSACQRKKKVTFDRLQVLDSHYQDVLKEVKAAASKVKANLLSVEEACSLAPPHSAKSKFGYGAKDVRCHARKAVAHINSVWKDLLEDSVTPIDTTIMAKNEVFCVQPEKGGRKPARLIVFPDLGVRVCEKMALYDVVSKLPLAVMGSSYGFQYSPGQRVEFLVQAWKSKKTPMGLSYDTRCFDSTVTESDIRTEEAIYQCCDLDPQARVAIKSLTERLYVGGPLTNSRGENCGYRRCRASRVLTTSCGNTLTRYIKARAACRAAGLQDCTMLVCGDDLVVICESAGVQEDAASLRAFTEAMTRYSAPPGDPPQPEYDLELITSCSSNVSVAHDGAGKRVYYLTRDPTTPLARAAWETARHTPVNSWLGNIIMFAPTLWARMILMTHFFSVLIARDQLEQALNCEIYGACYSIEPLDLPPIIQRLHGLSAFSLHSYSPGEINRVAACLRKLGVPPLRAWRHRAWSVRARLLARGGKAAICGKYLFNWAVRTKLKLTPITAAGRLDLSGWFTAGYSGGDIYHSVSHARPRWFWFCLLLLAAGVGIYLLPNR

This assay concerns the target HCV NS5B polymerase (Hepatitis C virus genotype 1a, UniProt P27958). Put plainly: HCV polymerase inhibition assay (FlashPlate, [α-33P]GTP incorporation). Type of assay: biochemical. The note with it: 20 nM enzyme, 0.6 μM GTP, 250 nM 5′biotinylated oligo (rG13)/poly rC, 75 min at 28° C. How it is done:
Compounds were tested for HCV polymerase inhibition. Assays were performed in a 96-well streptavidin-coated FlashPlate using 20 nM enzyme, 0.5 μCi of [α-^33P]GTP, 0.6 μM GTP, and 250 nM 5′biotinylated oligo (rG13)/poly rC in 20 mM Tris-HCl, pH 7.5, 5 mM MgCl2, 5 mM dithiothreitol, 0.1 g/L bovine serum albumin, and 100 U/mL RNAse inhibitor. The reaction was stopped by aspiration after 75 min at 28° C. and the plate was washed several times. After washing and drying the plate, incorporated radioactivity was counted using a Microbeta scintillation counter. IC50 values were calculated relative to the uninhibited control and inhibition data were fitted to a 4-parameter IC50 equation. For very potent inhibitors, the data were fitted to a tight binding quadratic equation to obtain IC50 values.
`CC(C)CCn1nc(-c2cccs2)c(O)c(C2=CS(=O)(=O)c3ccccc3N2)c1=O` [Compound 16, 4-(1,1-Dioxo-1,4-dihydro-1λ^6-benzo[1,4]thiazin-3-yl)-5-hydroxy-2-(3-methyl-butyl)-6-thiophen-2-yl-2H-pyridazin-3-one] showed an IC50 of more than 1000 nM.

`CCCCc1nn(CCC(C)C)c(=O)c(C2=CS(=O)(=O)c3ccccc3N2)c1O` [Compound 25, 6-Butyl-4-(1,1-dioxo-1,4-dihydro-1λ^6-benzo[1,4]thiazin-3-yl)-5-hydroxy-2-(3-methyl-butyl)-2H-pyridazin-3-one] yielded an IC50 of more than 1000 nM.

In the case of `CC(C)CCn1nc(-c2cccs2)c(O)c(C2=CS(=O)(=O)c3cc(NS(C)(=O)=O)ccc3N2)c1=O` [Compound 29, N-{3-[5-Hydroxy-2-(3-methyl-butyl)-3-oxo-6-thiophen-2-yl-2,3-dihydro-pyridazin-4-yl]-1,1-dioxo-1,4-dihydro-1λ^6-benzo[1,4]thiazin-7-yl}-methanesulfonamide], the IC50 is less than 1000 nM.

In general, IC50 refers to the concentration needed to halve the response being measured. Read a low IC50 as greater potency.
